Experimental data as given in patent US9353082B2, “Pharmaceutical compounds” (BIAL—PORTELA & CA, S.A., priority 2008, dated 2016).

Assays:
FAAH [1] = molecular target: T1, FAAH (Rattus norvegicus, UniProt P97612); test: In vitro FAAH activity in rat brain membranes, 3H-AEA substrate, % of control; assay type: biochemical, Wistar rats; conditions: low value = strong inhibitor; for FAAH 100 nM: 100 nM compound; for In Vitro FAAH activity, 100 nM: 100 nM test compound; for In Vitro 100 nM (FAAH activity, % of control): compound at 100 nM
T1 construct: Frozen brains (without cerebellum) from Wistar rats were used; from tissue; host or cells: Wistar rat brain (without cerebellum), washed membrane pellets
T1 sequence (P97612 1-579): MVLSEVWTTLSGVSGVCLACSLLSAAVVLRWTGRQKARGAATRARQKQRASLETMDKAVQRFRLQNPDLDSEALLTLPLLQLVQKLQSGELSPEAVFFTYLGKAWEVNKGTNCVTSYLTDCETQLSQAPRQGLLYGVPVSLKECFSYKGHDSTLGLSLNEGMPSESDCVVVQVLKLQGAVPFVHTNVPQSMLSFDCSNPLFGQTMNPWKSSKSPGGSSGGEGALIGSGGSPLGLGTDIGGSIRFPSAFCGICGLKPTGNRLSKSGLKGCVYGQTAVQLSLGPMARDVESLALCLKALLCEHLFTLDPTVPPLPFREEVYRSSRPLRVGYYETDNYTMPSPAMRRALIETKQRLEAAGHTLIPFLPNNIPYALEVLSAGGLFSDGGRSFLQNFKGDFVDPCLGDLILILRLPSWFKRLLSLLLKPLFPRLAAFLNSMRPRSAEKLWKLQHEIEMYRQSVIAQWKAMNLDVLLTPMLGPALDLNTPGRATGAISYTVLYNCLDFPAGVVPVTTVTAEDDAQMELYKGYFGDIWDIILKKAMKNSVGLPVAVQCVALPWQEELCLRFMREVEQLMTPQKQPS
Method in brief: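 FAAH activity measured as 3H-ethanolamine released from 2 μM [3H]AEA over 10 min by rat brain membrane preparation, after 15 min 37 °C preincubation with test compound at 10 or 0.1 μM. Charcoal-separated supernatant scintillation-counted; values expressed as % of control minus no-protein blank.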

carboxylesterase (CE) [2] = test: Carboxylesterase (CE) activity in mouse liver microsomes (LVms), p-nitrophenyl acetate; assay type: biochemical; conditions: 10 uM compound, read 10 min after substrate, remaining CE activity
Experimental: (§1) FAAH inhibition was determined as described above. Inhibition of monoacylglycerol lipase (MAGL) and carboxylesterase (CE) was performed according to the protocols described below. The controls for both in vitro and in vivo were the reaction mix minus the test compounds. Therefore, a low value in Table 2 below for the test compounds indicates a strong inhibitor.
(§2) CE activity measurement is based on the formation of p-nitrophenol from p-nitrophenyl acetate. Briefly, in 96-well plates 8 μg/ml of rat or mouse liver microsomes (LVms) were incubated with 10 μM FAAH inhibitors for 15 min and then the substrate, p-nitrophenyl acetate, was added to a final concentration of 1 mM. The plate was read at 405 nm 10 min after substrate addition for the appearance of p-nitrophenol using a spectrophotometer. The carboxylesterase activity in microsome extracts without inhibitor added were set at 100% as control and the remaining CE activities after incubation with inhibitors were calculated relative to the control.

carboxylesterase (CE) [3] = test: Carboxylesterase (CE) activity in rat liver microsomes (LVms), p-nitrophenyl acetate; assay type: biochemical; conditions: 10 uM compound, read 10 min after substrate, remaining CE activity
Experimental: as §1, §2

FAAH [4] = molecular target: T2, FAAH (Mus musculus, UniProt O08914); test: In vivo FAAH inhibition after oral dosing, remaining activity in brain homogenate (BRh, central nervous tissue); set-up: species or system NMRI mice; conditions: for In Vivo BRh 3 mg · kg · 8 h (remaining FAAH activity) / In Vivo BRh 3 mg·kg 8 h (remaining FAAH activity, % of control): brain homogenate, low value = strong inhibitor; for In Vivo BRh 3 mg · kg · 8 h (remaining FAAH activity) / FAAH BRh 3 mg · kg · 8 h: 3 mg/kg oral; for FAAH BRh 3 mg · kg · 8 h: in vivo, mouse brain, remaining enzymatic activity; for In Vivo BRh 3 mg·kg 8 h (remaining FAAH activity, % of control): 8 h after dosing
T2 construct: A fragment of liver, left lung lobe and brain without cerebellum were removed; from tissue; host or cells: male NMRI mice; brain (without cerebellum) and liver homogenates
T2 sequence (O08914 1-579): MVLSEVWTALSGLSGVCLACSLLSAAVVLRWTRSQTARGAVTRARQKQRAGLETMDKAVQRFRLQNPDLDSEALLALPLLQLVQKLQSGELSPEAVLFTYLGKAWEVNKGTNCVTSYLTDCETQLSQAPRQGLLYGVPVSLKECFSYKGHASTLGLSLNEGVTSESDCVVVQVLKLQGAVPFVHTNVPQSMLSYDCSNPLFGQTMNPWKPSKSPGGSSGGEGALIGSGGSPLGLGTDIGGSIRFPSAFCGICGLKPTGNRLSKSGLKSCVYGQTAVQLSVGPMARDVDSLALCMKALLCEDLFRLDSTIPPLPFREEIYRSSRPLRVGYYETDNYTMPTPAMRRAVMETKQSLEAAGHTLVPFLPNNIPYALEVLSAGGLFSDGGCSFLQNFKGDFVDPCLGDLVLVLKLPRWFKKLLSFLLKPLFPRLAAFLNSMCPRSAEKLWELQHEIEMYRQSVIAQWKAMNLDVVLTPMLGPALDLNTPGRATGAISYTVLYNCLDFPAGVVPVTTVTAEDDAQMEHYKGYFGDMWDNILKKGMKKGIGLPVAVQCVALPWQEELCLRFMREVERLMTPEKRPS
Method in brief: (§3)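 Remaining FAAH activity is given as % of vehicle-treated controls after blank subtraction, measured by radiolabelled AEA hydrolysis (2 μM AEA, 5 nM 3H-AEA, 37 °C) in brain (10 min) or liver (7 min) homogenates. These came from fasted male NMRI mice dosed orally at 30 or 3 mg/kg.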

FAAH [5] = molecular target: T2, FAAH; test: In vivo FAAH inhibition after oral dosing, remaining activity in liver homogenate (LVh, peripheral tissue); set-up: species or system NMRI mice; conditions: for FAAH LVh 3 mg · kg · 8 h: in vivo, mouse liver, remaining enzymatic activity; for FAAH LVh 3 mg · kg · 8 h / In Vivo LVh 3 mg · kg · 8 h (remaining FAAH activity): 3 mg/kg oral; for In Vivo LVh 3 mg · kg · 8 h (remaining FAAH activity) / In Vivo LVh 3 mg·kg 8 h (remaining FAAH activity, % of control): liver homogenate, low value = strong inhibitor; for In Vivo LVh 3 mg·kg 8 h (remaining FAAH activity, % of control): 8 h after dosing
Method in brief: as §3

[6] = molecular target: T3, monoacylglycerol lipase (MAGL) (Rattus norvegicus, UniProt Q8R431); test: MAGL activity in rat cerebella cytosol (CRBcyt), hydrolysis of [3H] 2-OG; assay type: biochemical, WISTAR rats; conditions: 12.5 uM compound, remaining MAGL activity
T3 construct: cerebella cytosol (CRBcyt) fractions, previously obtained from adult WISTAR rats; from tissue; host or cells: adult Wistar rat cerebella, cytosol fraction
T3 sequence (Q8R431 1-303): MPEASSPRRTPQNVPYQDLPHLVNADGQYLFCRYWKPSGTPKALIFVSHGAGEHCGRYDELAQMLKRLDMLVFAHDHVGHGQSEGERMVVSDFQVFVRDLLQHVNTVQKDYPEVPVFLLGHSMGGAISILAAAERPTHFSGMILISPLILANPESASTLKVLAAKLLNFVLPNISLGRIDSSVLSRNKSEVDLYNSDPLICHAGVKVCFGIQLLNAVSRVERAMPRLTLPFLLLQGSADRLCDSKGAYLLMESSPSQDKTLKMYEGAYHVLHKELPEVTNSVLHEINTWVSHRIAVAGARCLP
Experimental: as §1
MAGL activity measurement was based on rate of hydrolysis of [^3H] 2-OG (glycerol labeled) as substrate. Briefly, cerebella cytosol (CRBcyt) fractions, previously obtained from adult WISTAR rats, were diluted to appropriate assay protein concentrations in Tris-HCl buffer (10 mM, pH 7.2) containing 1 mM EDTA, and were added to assay tubes containing test compound. Blanks contained assay buffer instead of cytosol samples were used as control. […] The final assay contained 0.125% w v^−1 fatty acid-free BSA. After the incubation phase, reactions were stopped by adding 400 μL chloroform:methanol (1/1 v v^−1), vortex mixing the tubes two times and placing them on ice. Phases were separated by centrifugation and 200 μL aliquots of the methanol/buffer phase were taken and tritium content assayed by liquid scintillation spectroscopy with quench correction.

[7] = rat brain membranes, 100 = no measurable inhibition

| SMILES | CE Mou LVms 10 uM 10 min (carboxylesterase (CE) [2]) | CE Rat LVms 10 uM 10 min (carboxylesterase (CE) [3]) | In Vitro 100 nM (FAAH activity, % of control) (FAAH [1]; rat brain membranes) | In Vivo BRh 3 mg·kg 8 h (remaining FAAH activity, % of control) (FAAH [4]) | In Vivo LVh 3 mg·kg 8 h (remaining FAAH activity, % of control) (FAAH [5]) | other results |
| --- | --- | --- | --- | --- | --- | --- |
| COc1ccc(N(C)C(=O)n2cnc(-c3ccc4ccccc4c3)c2)cc1 [Compound 16, N-(4-methoxyphenyl)-N-methyl-4-(naphthalen-2-yl)-1H-imidazole-1-carboxamide] | 95.4 % of control | 87.5 % of control |  |  |  | FAAH 10 uM (FAAH [1]; 10 uM compound, rat brain membranes, 100 = no measurable inhibition): 24.7 % of control; In Vitro FAAH activity, 10 uM (FAAH [1]; 10 uM test compound): 24.7 % of control |
| O=C(NCCCCc1ccccc1)n1nnc2ccccc21 [Compound 85, N-(4-phenylbutyl)-1H-benzo[d][1,2,3]triazole-1-carboxamide] | 31 % of control | 33 % of control |  |  |  | FAAH 100 nM (FAAH [1]; [7]): 0.1 % of control; In Vitro FAAH activity, 100 nM (FAAH [1]): 0.1 % of control |
| CN(C(=O)n1nnc2cc(Br)ccc21)C1CCCCC1 [Compound 97, 5-bromo-N-cyclohexyl-N-methyl-1H-benzo[d][1,2,3]triazole-1-carboxamide] | 50.7 % of control | 41.1 % of control |  |  |  | FAAH 100 nM (FAAH [1]; [7]): 0 % of control; In Vitro FAAH activity, 100 nM (FAAH [1]): 0 % of control |
| CN(C(=O)n1cnc(-c2ccc3oc(=O)[nH]c3c2)c1)C1CCCC1 [Compound 564, N-cyclopentyl-N-methyl-4-(2-oxo-2,3-dihydrobenzo[d]oxazol-5-yl)-1H-imidazole-1-carboxamide] | 87.4 % of control | 96.1 % of control |  |  |  | In Vivo BRh 3 mg · kg · 8 h (remaining FAAH activity) (FAAH [4]): 37.6 % of control; FAAH BRh 3 mg · kg · 8 h (FAAH [4]): 37.6 % of control; FAAH LVh 3 mg · kg · 8 h (FAAH [5]): 2.3 % of control; In Vivo LVh 3 mg · kg · 8 h (remaining FAAH activity) (FAAH [5]): 2.3 % of control; MAGL Rat CRBcyto 12.5 uM 8 min [6]: 91.6 % of control |
| CN(C(=O)n1cnc(-c2ccc(S(C)(=O)=O)cc2)c1)C1CCN(Cc2ccccc2)CC1 [Compound 567, N-(1-benzylpiperidin-4-yl)-N-methyl-4-(4-(methylsulfonyl)phenyl)-1H-imidazole-1-carboxamide] | 88.6 % of control | 97.8 % of control |  |  |  | In Vivo BRh 3 mg · kg · 8 h (remaining FAAH activity) (FAAH [4]): 87.8 % of control; FAAH BRh 3 mg · kg · 8 h (FAAH [4]): 87.8 % of control; FAAH LVh 3 mg · kg · 8 h (FAAH [5]): 6.3 % of control; In Vivo LVh 3 mg · kg · 8 h (remaining FAAH activity) (FAAH [5]): 6.3 % of control; MAGL Rat CRBcyto 12.5 uM 8 min [6]: 94.2 % of control |
| CC1(C)COCN1C(=O)n1nnc2c(F)cc(F)cc21 [Compound no. 360, (4,6-difluoro-1H-benzo[d][1,2,3]triazol-1-yl)(4,4-dimethyloxazolidin-3-yl)methanone] |  |  | 1.6 % of control | 3.1 % of control | 3.7 % of control |  |
| CC1(C)COCN1C(=O)n1nnc2ccc(-c3ccccc3)cc21 [Compound no. 361, (4,4-dimethyloxazolidin-3-yl)(6-phenyl-1H-benzo[d][1,2,3]triazol-1-yl)methanone] |  |  | 1.3 % of control | 6.3 % of control | 1.4 % of control |  |
| CN(C(=O)n1cnc(-c2ccc[n+]([O-])c2)c1)C1CCCCC1 [Compound no. 362, 3-(1-(cyclohexyl(methyl)carbamoyl)-1H-imidazol-4-yl)pyridine 1-oxide] |  |  | 78.2 % of control | 1.6 % of control | 1.7 % of control |  |
